In patent US9120812B2, “Pyrimidooxazocine derivatives as mTOR-inhibitors” (SANOFI, priority 2012, dated 2015):

Assays:
Akt-pS473 in U87MG cells = conditions: Homo sapiens, U-87 MG; for IC50: read-out: U87 Akt-pS473 % Inhibition or IC50, nM (IC50), U87MG cells
U87MG tumour cells = assay: Test of in vitro proliferation of U87MG tumour cells; assay type: cell-based; conditions: Homo sapiens, U-87 MG, 72 h, U87MG cells, 72 hours; read-out: U87 Cell Proliferation IC50
Experimental: Model 4: Test of in vitro Proliferation of U87MG Tumour Cells.
The cell growth is determined with the reagent CellTiter 96 AQueous One Solution Cell Proliferation Assay from Promega (Cat. No. G3581).

[1] = target: mTOR (human recombinant aa mTOR 1360-2549) (Homo sapiens (Human), UniProt P42345); assay: mTOR enzymatic test by TR-FRET (phosphorylation of GFP-4EBP1); assay type: biochemical
Experimental: Model 1: mTOR Enzymatic Test by TR-FRET (Time-resolved Fluorescence Resonance Energy Transfer).
The test detects the phosphorylation of the substrate GFP-4EBP1 using a terbium-labelled antibody that is specific for the phospho-Thr46 epitope. Binding of the Tb-antibody to the phosphorylated GFP peptide allows the transfer of energy from Tb, excited at 340 nm, to GFP with an increase in the fluorescence emission of the GFP at 520 nm. […] The mixture is incubated for 30 minutes at room temperature. 10 μl of solution are taken up and the reaction is quenched by adding 10 μl of Tb-antibody solution (Invitrogen PV4757)/EDTA (2 nM Tb-Ac and 10 mM EDTA final). After 60 minutes at room temperature, the fluorescence at 490 nm, from the Tb emission, and at 520 nm, from the GFP emission, is measured in a BMG PHERAstar reader equipped with a Lanthascreen™ filter (excitation at 340 nm, emission at 490 and 520 nm). The results are given in the form of the 520/490 ratio.

PI3Kα (p110α/p85α) = PI3Kα (p110α/p85α) (Homo sapiens (Human), UniProt P42336); assay: PI3Kα enzymatic test by measuring the consumption of ATP; assay type: biochemical
Experimental: Model 2: PI3Kα Enzymatic Test by Measuring the Consumption of ATP.
The test uses a lucifeurerin/luciferase system to measure the concentration of ATP and its consumption during the enzymatic reaction. The test is performed in 96-well format (Corning/Costar 96 black flat-bottomed half-wells plate, ref. 3694) in a total volume of 30 μl.
To 1 μl of inhibitor in 100% DMSO are added (final concentrations) 50 μM of the substrate PIP2 ((L-α-phosphatidyl-D-myoinositol 4,5-bisphosphate, Echelon 117P-4516-0500), 2 μM of ATP and 1.7 μg/ml of PI3Kα, (p110α/p85α, Invitrogen PV4788) in a buffer of Tris/HCl 50 mM pH 7.5, EGTA 1 mM, MgCl2 10 mM, Chaps 0.03%, 1 mM DTT). After 90 minutes, the reaction is quenched by adding 20 μl/well of KinaseGlo reagent (Promega V6713). After 10 minutes in the dark, the luminescence is read on the PHERAStar microplate reader (reading at 0.8 sec/well).
The IC50 values are determined by the preparation of successive threefold dilutions on at least a scale of 10 000.

Sequence of mTOR (human recombinant aa mTOR 1360-2549) (P42345 1360-2549): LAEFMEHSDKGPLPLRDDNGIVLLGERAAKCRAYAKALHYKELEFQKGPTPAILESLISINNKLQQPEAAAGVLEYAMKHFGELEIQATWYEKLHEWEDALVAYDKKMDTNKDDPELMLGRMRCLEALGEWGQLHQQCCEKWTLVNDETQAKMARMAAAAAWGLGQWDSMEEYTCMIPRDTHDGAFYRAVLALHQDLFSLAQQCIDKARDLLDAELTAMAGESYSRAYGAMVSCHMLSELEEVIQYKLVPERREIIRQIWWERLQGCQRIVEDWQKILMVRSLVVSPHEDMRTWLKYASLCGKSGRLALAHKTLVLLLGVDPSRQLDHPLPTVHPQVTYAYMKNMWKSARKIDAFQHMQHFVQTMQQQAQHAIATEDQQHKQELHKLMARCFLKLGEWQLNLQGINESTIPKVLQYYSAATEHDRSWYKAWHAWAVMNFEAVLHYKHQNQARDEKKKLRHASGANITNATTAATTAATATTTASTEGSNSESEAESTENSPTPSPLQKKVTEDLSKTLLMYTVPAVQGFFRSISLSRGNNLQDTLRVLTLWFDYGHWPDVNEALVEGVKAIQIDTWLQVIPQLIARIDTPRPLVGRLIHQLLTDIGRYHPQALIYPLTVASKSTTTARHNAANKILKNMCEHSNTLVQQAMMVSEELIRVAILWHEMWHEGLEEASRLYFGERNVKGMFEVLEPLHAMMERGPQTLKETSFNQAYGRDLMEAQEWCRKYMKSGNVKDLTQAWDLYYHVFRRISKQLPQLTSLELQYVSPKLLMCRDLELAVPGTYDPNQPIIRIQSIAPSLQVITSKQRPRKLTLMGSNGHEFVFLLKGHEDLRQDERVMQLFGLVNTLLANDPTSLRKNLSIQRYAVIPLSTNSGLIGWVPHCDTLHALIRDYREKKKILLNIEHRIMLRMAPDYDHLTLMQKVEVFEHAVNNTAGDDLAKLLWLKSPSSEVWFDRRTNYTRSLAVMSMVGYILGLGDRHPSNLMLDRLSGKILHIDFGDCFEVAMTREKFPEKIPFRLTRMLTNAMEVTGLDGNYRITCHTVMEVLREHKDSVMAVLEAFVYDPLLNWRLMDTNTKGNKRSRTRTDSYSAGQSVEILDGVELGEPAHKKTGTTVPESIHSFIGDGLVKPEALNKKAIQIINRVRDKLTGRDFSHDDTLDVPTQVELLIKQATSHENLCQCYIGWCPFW
Sequence of PI3Kα (p110α/p85α) (P42336 whole entry): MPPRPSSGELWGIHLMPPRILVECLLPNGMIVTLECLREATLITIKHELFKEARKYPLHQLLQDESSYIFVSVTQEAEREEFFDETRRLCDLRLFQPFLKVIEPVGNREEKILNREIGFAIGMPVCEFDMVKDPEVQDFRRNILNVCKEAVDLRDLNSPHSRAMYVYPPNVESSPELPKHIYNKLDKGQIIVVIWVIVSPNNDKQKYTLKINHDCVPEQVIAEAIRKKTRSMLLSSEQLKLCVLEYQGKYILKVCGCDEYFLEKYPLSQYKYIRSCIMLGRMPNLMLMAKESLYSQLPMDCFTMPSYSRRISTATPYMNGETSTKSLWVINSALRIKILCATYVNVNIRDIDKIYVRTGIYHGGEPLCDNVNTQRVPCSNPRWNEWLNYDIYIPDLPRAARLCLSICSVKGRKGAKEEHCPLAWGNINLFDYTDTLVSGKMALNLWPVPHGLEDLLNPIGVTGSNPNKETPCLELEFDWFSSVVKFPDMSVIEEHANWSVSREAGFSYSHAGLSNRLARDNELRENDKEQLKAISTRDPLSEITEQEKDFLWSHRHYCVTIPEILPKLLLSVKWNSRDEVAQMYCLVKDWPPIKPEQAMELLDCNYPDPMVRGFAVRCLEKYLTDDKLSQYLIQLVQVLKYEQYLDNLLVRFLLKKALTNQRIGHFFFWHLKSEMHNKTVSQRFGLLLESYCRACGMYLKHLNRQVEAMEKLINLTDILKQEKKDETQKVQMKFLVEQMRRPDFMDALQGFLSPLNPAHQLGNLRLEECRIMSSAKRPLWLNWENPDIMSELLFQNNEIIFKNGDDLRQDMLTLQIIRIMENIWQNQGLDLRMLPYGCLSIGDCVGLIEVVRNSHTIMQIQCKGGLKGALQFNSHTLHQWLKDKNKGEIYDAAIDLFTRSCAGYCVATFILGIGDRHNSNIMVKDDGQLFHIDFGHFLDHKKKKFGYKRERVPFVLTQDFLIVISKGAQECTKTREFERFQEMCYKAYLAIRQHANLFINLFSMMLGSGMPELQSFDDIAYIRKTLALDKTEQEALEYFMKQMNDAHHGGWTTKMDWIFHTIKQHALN
Sequence of PI3Kα (p110α/p85α) (P27986 whole entry partner): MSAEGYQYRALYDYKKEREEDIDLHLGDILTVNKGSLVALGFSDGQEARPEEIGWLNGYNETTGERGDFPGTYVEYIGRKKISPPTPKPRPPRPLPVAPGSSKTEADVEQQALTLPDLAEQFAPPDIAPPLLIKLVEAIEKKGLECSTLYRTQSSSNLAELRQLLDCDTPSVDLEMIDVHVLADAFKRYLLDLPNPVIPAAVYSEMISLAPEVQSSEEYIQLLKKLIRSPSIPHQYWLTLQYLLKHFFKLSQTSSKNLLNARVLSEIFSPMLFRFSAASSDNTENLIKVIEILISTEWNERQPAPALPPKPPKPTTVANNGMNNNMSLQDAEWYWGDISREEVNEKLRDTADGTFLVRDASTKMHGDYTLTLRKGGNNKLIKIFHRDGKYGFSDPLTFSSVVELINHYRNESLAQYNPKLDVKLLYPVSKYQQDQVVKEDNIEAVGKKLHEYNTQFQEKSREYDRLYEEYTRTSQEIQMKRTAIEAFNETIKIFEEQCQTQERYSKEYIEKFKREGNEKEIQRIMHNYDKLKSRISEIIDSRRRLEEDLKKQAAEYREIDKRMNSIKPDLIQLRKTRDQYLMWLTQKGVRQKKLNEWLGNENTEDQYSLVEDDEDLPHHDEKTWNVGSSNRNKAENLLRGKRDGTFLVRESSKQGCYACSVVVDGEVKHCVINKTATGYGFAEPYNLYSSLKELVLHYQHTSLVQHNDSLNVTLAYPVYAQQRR

Compound	IC50 (Akt-pS473 in U87MG cells)	IC50 (U87MG tumour cells)	IC50 [1]	inhibition at 1 µM (Akt-pS473 in U87MG cells; read-out: U87 Akt-pS473 % Inhibition)	PI3Ka IC50 (PI3Kα (p110α/p85α))
CCN1CC(C)(C)Oc2nc(N3CC4CCC(C3)O4)nc(-c3ccc(NC(=O)NCC(C)(C)O)c(F)c3)c2C1=O [Example 24, 1-{4-[6-ethyl-8,8-dimethyl-2-(8-oxa-3-azabicyclo[3.2.1]oct-3-yl)-5-oxo-5,6,7,8-tetrahydro-9-oxa-1,3,6-triazabenzocyclohepten-4-yl]-2-fluorophenyl}-3-(2-hydroxy-2-methylpropyl)urea]	> 1000 nM	> 10000 nM	1070 nM	–	–
CCN1CC(C)(C)Oc2nc(N3CC4CCC(C3)O4)nc(-c3ccc(NC(=O)N[C@H](C)CO)c(F)c3)c2C1=O [Example 27, 1-{4-[6-ethyl-8,8-dimethyl-2-(8-oxa-3-azabicyclo[3.2.1]oct-3-yl)-5-oxo-5,6,7,8-tetrahydro-9-oxa-1,3,6-triazabenzocyclohepten-4-yl]-2-fluorophenyl}-3-((R)-2-hydroxy-1-methylethyl)urea]	> 1000 nM	9150 nM	394 nM	–	–
CCN1CC(C)(C)Oc2nc(N3CC4CCC(C3)O4)nc(-c3ccc(NC(=O)N[C@@H](C)CO)c(F)c3)c2C1=O [Example 57, 1-{4-[6-Ethyl-8,8-dimethyl-2-(8-oxa-3-azabicyclo[3.2.1]oct-3-yl)-5-oxo-5,6,7,8-tetrahydro-9-oxa-1,3,6-triazabenzocyclohepten-4-yl]-2-fluorophenyl}-3-((S)-2-hydroxy-1-methylethyl)urea]	> 1000 nM	7580 nM	–	–	–
Cc1cc(NC(=O)Nc2ccc(-c3nc(N4CC5CCC(C4)O5)nc4c3C(=O)N(C)CC(C)(C)O4)cc2F)ccn1 [Example 60, 1-{2-Fluoro-4-[6,8,8-trimethyl-2-(8-oxa-3-azabicyclo[3.2.1]oct-3-yl)-5-oxo-5,6,7,8-tetrahydro-9-oxa-1,3,6-triazabenzocyclohepten-4-yl]phenyl}-3-(2-methylpyridin-4-yl)urea]	17 nM	46 nM	58 nM	–	–
CCN1CC(C)(C)Oc2nc(N3CC4CCC(C3)O4)nc(-c3ccc(NC(=O)O[C@@H](C)CO)c(F)c3)c2C1=O [Example 61, {4-[6-Ethyl-8,8-dimethyl-2-(8-oxa-3-azabicyclo[3.2.1]oct-3-yl)-5-oxo-5,6,7,8-tetrahydro-9-oxa-1,3,6-triazabenzocyclohepten-4-yl]-2-fluorophenyl}carbamic acid (S)-2-hydroxy-1-methylethyl ester]	> 1000 nM	4670 nM	993 nM	–	–
CCN1CC(C)(C)Oc2nc(N3CC4CCC(C3)O4)nc(-c3ccc(NC(=O)Nc4cc(C)nc(C)n4)c(F)c3)c2C1=O [Example 90, 1-(2,6-Dimethylpyrimidin-4-yl)-3-{4-[6-ethyl-8,8-dimethyl-2-(8-oxa-3-azabicyclo[3.2.1]oct-3-yl)-5-oxo-5,6,7,8-tetrahydro-9-oxa-1,3,6-triazabenzocyclohepten-4-yl]-2-fluorophenyl}urea]	–	2900 nM	450 nM	64%	–
CCN1CC(C)(C)Oc2nc(N3CC4CCC(C3)O4)nc(-c3ccc(NC(=O)Nc4ccn(C)n4)cc3)c2C1=O [Example 122, 1-{4-[6-Ethyl-8,8-dimethyl-2-(8-oxa-3-azabicyclo[3.2.1]oct-3-yl)-5-oxo-5,6,7,8-tetrahydro-9-oxa-1,3,6-triazabenzocyclohepten-4-yl]phenyl}-3-(1-methyl-1H-pyrazol-3-yl)urea]	140 nM	340 nM	–	–	–
CCN1CC(C)(C)Oc2nc(N3CC4CCC(C3)O4)nc(-c3ccc(NC(=O)Nc4cnccn4)cc3)c2C1=O [Example 125, 1-{4-[6-Ethyl-8,8-dimethyl-2-(8-oxa-3-azabicyclo[3.2.1]oct-3-yl)-5-oxo-5,6,7,8-tetrahydro-9-oxa-1,3,6-triazabenzocyclohepten-4-yl]phenyl}-3-pyrazin-2-ylurea]	86 nM	260 nM	–	–	–
CCN1CC(C)(C)Oc2nc(N3CC4CCC(C3)O4)nc(-c3ccc(NC(=O)NCC4CCCO4)c(F)c3)c2C1=O (centres unmarked) [Example 128, 1-{4-[6-Ethyl-8,8-dimethyl-2-(8-oxa-3-azabicyclo[3.2.1]oct-3-yl)-5-oxo-5,6,7,8-tetrahydro-9-oxa-1,3,6-triazabenzocyclohepten-4-yl]-2-fluorophenyl}-3-(tetrahydrofuran-2-ylmethyl)urea]	–	> 10000 nM	3480 nM	–	>10000 nM
CCN1CC(C)(C)Oc2nc(N3CC4CCC(C3)O4)nc(-c3ccc(NC(=O)Nc4cccc(OC)n4)c(F)c3)c2C1=O [Example 142, 1-{4-[6-Ethyl-8,8-dimethyl-2-(8-oxa-3-azabicyclo[3.2.1]oct-3-yl)-5-oxo-5,6,7,8-tetrahydro-9-oxa-1,3,6-triazabenzocyclohepten-4-yl]-2-fluorophenyl}-3-(6-methoxypyridin-2-yl)urea]	–	3100 nM	495 nM	–	>10000 nM
CCN1CC(C)(C)Oc2nc(N3CC4CCC(C3)O4)nc(-c3ccc(NC(=O)NCc4ccc(OC)nc4)c(F)c3)c2C1=O [Example 145, 1-{4-[6-Ethyl-8,8-dimethyl-2-(8-oxa-3-azabicyclo[3.2.1]oct-3-yl)-5-oxo-5,6,7,8-tetrahydro-9-oxa-1,3,6-triazabenzocyclohepten-4-yl]-2-fluorophenyl}-3-(6-methoxypyridin-3-ylmethyl)urea]	–	> 10000 nM	2980 nM	–	>10000 nM
CCN1CC(C)(C)Oc2nc(N3CC4CCC(C3)O4)nc(-c3ccc(NC(=O)Nc4ccc(OC)nc4)c(C)c3)c2C1=O [Example 175, 1-{4-[6-Ethyl-8,8-dimethyl-2-(8-oxa-3-azabicyclo[3.2.1]oct-3-yl)-5-oxo-5,6,7,8-tetrahydro-9-oxa-1,3,6-triazabenzocyclohepten-4-yl]-2-methylphenyl}-3-(6-methoxypyridin-3-yl)urea]	–	3050 nM	585 nM	–	>10000 nM
COCCN1CC(C)(C)Oc2nc(N3CCOC[C@@H]3C)nc(-c3ccc(NC(=O)Nc4cccc(OC(F)F)c4)cc3)c2C1=O [Example 216, 1-(3-Difluoromethoxyphenyl)-3-{4-[6-(2-methoxyethyl)-8,8-dimethyl-2-((S)-3-methylmorpholin-4-yl)-5-oxo-5,6,7,8-tetrahydro-9-oxa-1,3,6-triazabenzocyclohepten-4-yl]phenyl}urea]	–	514 nM	125 nM	–	1830 nM
COCCN1CC(C)(C)Oc2nc(N3CC4CCC(C3)O4)nc(-c3ccc(NC(=O)Nc4cccc(OC(F)F)c4)c(F)c3)c2C1=O [Example 220, 1-(3-Difluoromethoxyphenyl)-3-{2-fluoro-4-[6-(2-methoxyethyl)-8,8-dimethyl-2-(8-oxa-3-azabicyclo[3.2.1]oct-3-yl)-5-oxo-5,6,7,8-tetrahydro-9-oxa-1,3,6-triazabenzocyclohepten-4-yl]phenyl}urea]	30 nM	285 nM	348 nM	–	–
CCN1CC(C)(C)Oc2nc(N3CC4CCC(C3)O4)nc(-c3ccc(NC(=O)Nc4ccnc(N5CCC(F)(F)CC5)c4)c(F)c3)c2C1=O [Example 261, 1-(4,4-Difluoro-3,4,5,6-tetrahydro-2H-[1,2′]bipyridinyl-4′-yl)-3-{4-[6-ethyl-8,8-dimethyl-2-(8-oxa-3-azabicyclo[3.2.1]oct-3-yl)-5-oxo-5,6,7,8-tetrahydro-9-oxa-1,3,6-triazabenzocyclohepten-4-yl]-2-fluorophenyl}urea]	20 nM	160 nM	–	–	–
